Patent US7531646B2, “β-D-ribosidase activity indicators with a chromogenic substrate” (priority 2001, dated 2009)
Structures can show the parent of a compound that is named as a salt.

Assays:
Experiment in all cases: Substrate hydrolysis on Columbia agar
Type in all cases: cell-based
Streptococcus sanguis = Streptococcus sanguis NCTC 7863; 300 mg/l; 18 hours
[1] = test system: Streptococcus constellatus; details: Streptococcus constellatus NCTC 11325; 300 mg/l; 18 hours
P. aeruginosa = details: 300 mg/l, 18 hours
A. lwoffii = A. lwoffii ATCC 15309; 300 mg/l; 18 hours
Vibrio harveyi = Vibrio harveyi NCTC 11346; 300 mg/l; 18 hours
[2] = test system: Haemolytic streptococcus C; details: 300 mg/l, 18 hours
Aeromonas caviae = test system: Aeromonas caviae; set-up: key to the marks not given beside the values; details: Aeromonas caviae NCTC 10852; 300 mg/l; 18 hours
Vibrio cholerae = details: 300 mg/l, 18 hours
A. baumanii = A. baumanii ATCC 19606; 300 mg/l; 18 hours
P. mirabilis = details: 300 mg/l, 18 hours
[3] = test system: Haemolytic streptococcus G; details: 300 mg/l, 18 hours
A. calcoaceticus = A. calcoaceticus ATCC 7844; 300 mg/l; 18 hours
Enterococcus durans = Enterococcus durans NCTC 8307; 300 mg/l; 18 hours
Providencia stuartii = details: 300 mg/l, 18 hours
Salmonella typhimurium = Salmonella typhimurium NCTC 74; 300 mg/l; 18 hours
Enterococcus faecalis = details: 300 mg/l, 18 hours
Staphylococcus aureus = details: 300 mg/l, 18 hours
Vibrio alcaligenes = Vibrio alcaligenes NCTC 12160; 300 mg/l; 18 hours
Streptococcus mitis = Streptococcus mitis NCTC 12261; 300 mg/l; 18 hours
Vibrio fluvialis = test system: Vibrio fluvialis; set-up: key to the marks not given beside the values; details: Vibrio fluvialis NCTC 11327; 300 mg/l; 18 hours
[4] = test system: Haemolytic streptococcus B; details: 300 mg/l, 18 hours
Vibrio parahaemolyticus = details: 300 mg/l, 18 hours
P. rettgeri = P. rettgeri NCTC 7475; 300 mg/l; 18 hours
K. pneumoniae = test system: K. pneumoniae; set-up: key to the marks not given beside the values; details: 300 mg/l, 18 hours
E. cloacae = test system: E. cloacae; set-up: key to the marks not given beside the values; details: 300 mg/l, 18 hours
[5] = Haemolytic streptococcus C 67736
[6] = Haemolytic streptococcus C 68350
[7] = Vibrio parahaemolyticus NCTC 10441
[8] = Vibrio parahaemolyticus NCTC 10884
[9] = Vibrio parahaemolyticus NCTC 10903
[10] = Vibrio parahaemolyticus NCTC 11344
[11] = Vibrio parahaemolyticus NCTC 12205

3′,4′-dihydroxyflavone-4′-β-D-glucopyranoside sodium salt [DHF-glucoside]
Hydrolysis by Gram positive organisms (Streptococcus sanguis): −
Hydrolysis by Gram positive organisms [1]: −
Hydrolysis by Gram negative bacteria (P. aeruginosa; P. aeruginosa ATCC 10145): −
Hydrolysis by Gram negative bacteria (P. aeruginosa; P. aeruginosa NCTC 10662): −
Hydrolysis by Gram negative bacteria (A. lwoffii): −
Hydrolysis by Gram negative bacteria (Vibrio harveyi): +
Hydrolysis by Gram positive organisms ([2]; Haemolytic streptococcus C 1): −
Hydrolysis by Gram positive organisms [2, 5]: −
Hydrolysis by Gram positive organisms [2, 6]: −
Hydrolysis by Gram negative bacteria (Aeromonas caviae): ++
Hydrolysis by Gram negative bacteria (Vibrio cholerae; Vibrio cholera NCTC 6585): −
Hydrolysis by Gram negative bacteria (Vibrio cholerae; Vibrio cholera NCTC 7270): −
Hydrolysis by Gram negative bacteria (Vibrio cholerae; Vibrio cholera NCTC 8021): −
Hydrolysis by Gram negative bacteria (Vibrio cholerae; Vibrio cholera NCTC 10732): −
Hydrolysis by Gram negative bacteria (Vibrio cholerae; Vibrio cholera NCTC 12945): −
Hydrolysis by Gram negative bacteria (Vibrio cholerae; Vibrio cholerae NCTC 7254): −
Hydrolysis by Gram negative bacteria (Vibrio cholerae; Vibrio cholerae NCTC 8042): −
Hydrolysis by Gram negative bacteria (Vibrio cholerae; Vibrio cholerae NCTC 10255): −
Hydrolysis by Gram negative bacteria (Vibrio cholerae; Vibrio cholerae NCTC 10954): −
Hydrolysis by Gram negative bacteria (A. baumanii): −
Hydrolysis by Gram negative bacteria (P. mirabilis; P. mirabilis NCTC 10975): −
Hydrolysis by Gram negative bacteria (P. mirabilis; P. mirabilis PMI 1): −
Hydrolysis by Gram negative bacteria (P. mirabilis; P. mirabilis PMI 2): −
Hydrolysis by Gram positive organisms ([3]; Haemolytic streptococcus G 1): −
Hydrolysis by Gram positive organisms ([3]; Haemolytic streptococcus G 2): −
Hydrolysis by Gram positive organisms ([3]; Haemolytic streptococcus G 3): −
Hydrolysis by Gram negative bacteria (A. calcoaceticus): −
Hydrolysis by Gram positive organisms (Enterococcus durans): ++
Hydrolysis by Gram negative bacteria (Providencia stuartii; Providencia stuartii PST 1): +
Hydrolysis by Gram negative bacteria (Providencia stuartii; Providencia stuartii PST 2): +
Hydrolysis by Gram negative bacteria (Salmonella typhimurium): −
Hydrolysis by Gram positive organisms (Enterococcus faecalis; Enterococcus faecalis 1): ++
Hydrolysis by Gram positive organisms (Enterococcus faecalis; Enterococcus faecalis 2): ++
Hydrolysis by Gram positive organisms (Enterococcus faecalis; Enterococcus faecalis 3): ++
Hydrolysis by Gram positive organisms (Enterococcus faecalis; Enterococcus faecalis 4): ++
Hydrolysis by Gram positive organisms (Enterococcus faecalis; Enterococcus faecalis 5): ++
Hydrolysis by Gram positive organisms (Enterococcus faecalis; Enterococcus faecalis 6): ++
Hydrolysis by Gram positive organisms (Enterococcus faecalis; Enterococcus faecalis 7): ++
Hydrolysis by Gram positive organisms (Staphylococcus aureus; Staphylococcus aureus 1): −
Hydrolysis by Gram positive organisms (Staphylococcus aureus; Staphylococcus aureus 2): −
Hydrolysis by Gram positive organisms (Staphylococcus aureus; Staphylococcus aureus 3): −
Hydrolysis by Gram positive organisms (Staphylococcus aureus; Staphylococcus aureus 4): −
Hydrolysis by Gram positive organisms (Staphylococcus aureus; Staphylococcus aureus 5): −
Hydrolysis by Gram negative bacteria (Vibrio alcaligenes): −
Hydrolysis by Gram positive organisms (Streptococcus mitis): −
Hydrolysis by Gram negative bacteria (Vibrio fluvialis): ++
Hydrolysis by Gram positive organisms ([4]; Haemolytic streptococcus B 1): −
Hydrolysis by Gram positive organisms ([4]; Haemolytic streptococcus B 2): −
Hydrolysis by Gram positive organisms ([4]; Haemolytic streptococcus B 3): −
Hydrolysis by Gram negative bacteria (Vibrio parahaemolyticus; [7]): −
Hydrolysis by Gram negative bacteria (Vibrio parahaemolyticus; [8]): −
Hydrolysis by Gram negative bacteria (Vibrio parahaemolyticus; [9]): −
Hydrolysis by Gram negative bacteria (Vibrio parahaemolyticus; [10]): −
Hydrolysis by Gram negative bacteria (Vibrio parahaemolyticus; [11]): −
Hydrolysis by Gram negative bacteria (P. rettgeri): +

O=c1cc(-c2ccc(OC3OC(CO)C(O)C3O)c(O)c2)oc2ccccc12 [DHF-riboside, 3′,4′-dihydroxyflavone-4′-β-D-ribofuranoside Sodium Salt]
Hydrolysis by Gram positive organisms (Streptococcus sanguis): −
Hydrolysis by Gram positive organisms [1]: −
Hydrolysis by Gram negative bacteria (P. aeruginosa; P. aeruginosa ATCC 10145): +
Hydrolysis by Gram negative bacteria (P. aeruginosa; P. aeruginosa NCTC 10662): +
Hydrolysis by Gram negative bacteria (A. lwoffii): −
Hydrolysis by Gram negative bacteria (Vibrio harveyi): ++
Hydrolysis by Gram positive organisms ([2]; Haemolytic streptococcus C 1): −
Hydrolysis by Gram positive organisms [2, 5]: −
Hydrolysis by Gram positive organisms [2, 6]: −
Hydrolysis by Gram negative bacteria (Aeromonas caviae): ++
Hydrolysis by Gram negative bacteria (Vibrio cholerae; Vibrio cholera NCTC 6585): −
Hydrolysis by Gram negative bacteria (Vibrio cholerae; Vibrio cholera NCTC 7270): −
Hydrolysis by Gram negative bacteria (Vibrio cholerae; Vibrio cholera NCTC 8021): −
Hydrolysis by Gram negative bacteria (Vibrio cholerae; Vibrio cholera NCTC 10732): −
Hydrolysis by Gram negative bacteria (Vibrio cholerae; Vibrio cholera NCTC 12945): −
Hydrolysis by Gram negative bacteria (Vibrio cholerae; Vibrio cholerae NCTC 7254): −
Hydrolysis by Gram negative bacteria (Vibrio cholerae; Vibrio cholerae NCTC 8042): −
Hydrolysis by Gram negative bacteria (Vibrio cholerae; Vibrio cholerae NCTC 10255): −
Hydrolysis by Gram negative bacteria (Vibrio cholerae; Vibrio cholerae NCTC 10954): −
Hydrolysis by Gram negative bacteria (A. baumanii): −
Hydrolysis by Gram negative bacteria (P. mirabilis; P. mirabilis NCTC 10975): −
Hydrolysis by Gram negative bacteria (P. mirabilis; P. mirabilis PMI 1): −
Hydrolysis by Gram negative bacteria (P. mirabilis; P. mirabilis PMI 2): −
Hydrolysis by Gram positive organisms ([3]; Haemolytic streptococcus G 1): −
Hydrolysis by Gram positive organisms ([3]; Haemolytic streptococcus G 2): −
Hydrolysis by Gram positive organisms ([3]; Haemolytic streptococcus G 3): +
Hydrolysis by Gram negative bacteria (A. calcoaceticus): −
Hydrolysis by Gram positive organisms (Enterococcus durans): −
Hydrolysis by Gram negative bacteria (Providencia stuartii; Providencia stuartii PST 1): +
Hydrolysis by Gram negative bacteria (Providencia stuartii; Providencia stuartii PST 2): +
Hydrolysis by Gram negative bacteria (Salmonella typhimurium): ++
Hydrolysis by Gram positive organisms (Enterococcus faecalis; Enterococcus faecalis 1): −
Hydrolysis by Gram positive organisms (Enterococcus faecalis; Enterococcus faecalis 2): +
Hydrolysis by Gram positive organisms (Enterococcus faecalis; Enterococcus faecalis 3): +
Hydrolysis by Gram positive organisms (Enterococcus faecalis; Enterococcus faecalis 4): +
Hydrolysis by Gram positive organisms (Enterococcus faecalis; Enterococcus faecalis 5): +
Hydrolysis by Gram positive organisms (Enterococcus faecalis; Enterococcus faecalis 6): +
Hydrolysis by Gram positive organisms (Enterococcus faecalis; Enterococcus faecalis 7): −
Hydrolysis by Gram negative bacteria (K. pneumoniae; K. pneumoniae KPN 2): ++
Hydrolysis by Gram negative bacteria (K. pneumoniae; K. pneumoniae KPN 3): ++
Hydrolysis by Gram negative bacteria (K. pneumoniae; K. pneumoniae KPN 4): ++
Hydrolysis by Gram negative bacteria (K. pneumoniae; K. pneumoniae NCTC 10896): ++
Hydrolysis by Gram positive organisms (Staphylococcus aureus; Staphylococcus aureus 1): ++
Hydrolysis by Gram positive organisms (Staphylococcus aureus; Staphylococcus aureus 2): ++
Hydrolysis by Gram positive organisms (Staphylococcus aureus; Staphylococcus aureus 3): ++
Hydrolysis by Gram positive organisms (Staphylococcus aureus; Staphylococcus aureus 4): ++
Hydrolysis by Gram positive organisms (Staphylococcus aureus; Staphylococcus aureus 5): ++
Hydrolysis by Gram negative bacteria (Vibrio alcaligenes): −
Hydrolysis by Gram positive organisms (Streptococcus mitis): −
Hydrolysis by Gram negative bacteria (E. cloacae; E. cloacae ECL 1): ++
Hydrolysis by Gram negative bacteria (E. cloacae; E. cloacae ECL 2): ++
Hydrolysis by Gram negative bacteria (E. cloacae; E. cloacae ECL 3): ++
Hydrolysis by Gram negative bacteria (E. cloacae; E. cloacae ECL 4): ++
Hydrolysis by Gram negative bacteria (E. cloacae; E. cloacae NCTC 11936): ++
Hydrolysis by Gram negative bacteria (Vibrio fluvialis): ++
Hydrolysis by Gram positive organisms ([4]; Haemolytic streptococcus B 1): −
Hydrolysis by Gram positive organisms ([4]; Haemolytic streptococcus B 2): −
Hydrolysis by Gram positive organisms ([4]; Haemolytic streptococcus B 3): −
Hydrolysis by Gram negative bacteria (Vibrio parahaemolyticus; [7]): −
Hydrolysis by Gram negative bacteria (Vibrio parahaemolyticus; [8]): −
Hydrolysis by Gram negative bacteria (Vibrio parahaemolyticus; [9]): −
Hydrolysis by Gram negative bacteria (Vibrio parahaemolyticus; [10]): −
Hydrolysis by Gram negative bacteria (Vibrio parahaemolyticus; [11]): −
Hydrolysis by Gram negative bacteria (P. rettgeri): +
